Experimental data taken from article PMC5701912, “Arylacetamide Deacetylase Is Involved in Vicagrel Bioactivation in Humans” (Frontiers in Pharmacology, 2017).

Tests used:
AADAC [1] = target: T1, AADAC (Homo sapiens, UniProt P22760); assay: Hydrolase activity by recombinant human AADAC
T1 sequence (P22760 1-399): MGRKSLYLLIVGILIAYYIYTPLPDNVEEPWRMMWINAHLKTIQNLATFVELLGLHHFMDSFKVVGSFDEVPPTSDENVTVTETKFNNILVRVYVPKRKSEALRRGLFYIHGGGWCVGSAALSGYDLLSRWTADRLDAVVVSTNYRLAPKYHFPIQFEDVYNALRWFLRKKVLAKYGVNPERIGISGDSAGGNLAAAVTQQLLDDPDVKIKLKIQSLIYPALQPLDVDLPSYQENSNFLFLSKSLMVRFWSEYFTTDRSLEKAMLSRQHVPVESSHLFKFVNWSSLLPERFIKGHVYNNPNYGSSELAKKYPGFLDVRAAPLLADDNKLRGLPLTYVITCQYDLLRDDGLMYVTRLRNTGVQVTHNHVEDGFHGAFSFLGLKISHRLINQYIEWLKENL

[2] = parameters: method as in Qiu et al., 2013; details: rats and beagle dogs, ref Qiu et al., 2013, cited from earlier work
CES2 [3] = target: T2, CES2 (Homo sapiens, UniProt O00748); assay: Hydrolase activity by recombinant human CES2; assay type: in vitro ADME
T2 construct: purchased Cypex Ltd. (Scotland, United Kingdom)
T2 sequence (O00748 27-559): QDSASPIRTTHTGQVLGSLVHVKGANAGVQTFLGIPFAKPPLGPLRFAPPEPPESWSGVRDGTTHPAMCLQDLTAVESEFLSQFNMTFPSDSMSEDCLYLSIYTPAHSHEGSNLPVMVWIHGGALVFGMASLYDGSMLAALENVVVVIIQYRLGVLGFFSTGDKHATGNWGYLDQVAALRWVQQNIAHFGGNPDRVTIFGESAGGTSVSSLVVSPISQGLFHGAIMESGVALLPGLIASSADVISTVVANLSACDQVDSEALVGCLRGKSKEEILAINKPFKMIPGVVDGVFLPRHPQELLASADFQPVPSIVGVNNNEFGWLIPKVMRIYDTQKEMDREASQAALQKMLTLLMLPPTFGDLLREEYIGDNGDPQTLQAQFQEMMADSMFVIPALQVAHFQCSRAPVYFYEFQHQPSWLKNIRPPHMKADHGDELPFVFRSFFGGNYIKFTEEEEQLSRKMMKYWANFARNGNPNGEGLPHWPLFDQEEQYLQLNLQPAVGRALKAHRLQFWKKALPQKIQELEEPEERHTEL
Text: (§1) (1) v = Vmax × S/(Km + S)

[4] = Hydrolase activity (kinetics and marker substrates) in human intestine microsomes
Text: as §1

[5] = parameters: method as in Liu et al., 2017; details: healthy subjects, oral vicagrel tablets, during the sampling period; ref Liu et al., 2017; cited from earlier work
[6] = Hydrolase activity in dog intestine microsomes; assay type: in vitro ADME
Text: as §1

[7] = Hydrolase activity (kinetics and marker substrates) in human liver microsomes; assay type: in vitro ADME
Text: as §1

CES1 = target: T3, CES1 (Homo sapiens, UniProt P23141); assay: Hydrolase activity by recombinant human CES1; assay type: in vitro ADME
T3 construct: purchased Cypex Ltd. (Scotland, United Kingdom)
T3 sequence (P23141 18-567): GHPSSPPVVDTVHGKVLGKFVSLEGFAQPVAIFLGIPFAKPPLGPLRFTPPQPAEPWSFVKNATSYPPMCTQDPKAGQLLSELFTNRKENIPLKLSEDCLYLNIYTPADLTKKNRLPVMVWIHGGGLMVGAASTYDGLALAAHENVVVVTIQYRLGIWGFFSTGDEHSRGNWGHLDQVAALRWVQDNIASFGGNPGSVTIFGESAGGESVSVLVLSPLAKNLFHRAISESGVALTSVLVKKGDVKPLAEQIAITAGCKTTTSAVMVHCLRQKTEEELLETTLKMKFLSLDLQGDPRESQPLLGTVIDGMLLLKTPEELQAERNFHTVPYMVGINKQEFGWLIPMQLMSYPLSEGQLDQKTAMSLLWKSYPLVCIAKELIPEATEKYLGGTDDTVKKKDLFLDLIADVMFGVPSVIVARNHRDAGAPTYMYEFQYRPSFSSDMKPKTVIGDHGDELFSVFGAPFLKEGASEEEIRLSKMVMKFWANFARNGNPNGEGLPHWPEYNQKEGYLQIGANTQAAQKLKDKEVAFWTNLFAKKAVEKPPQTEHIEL
Text: as §1

CES2 [8] = assay: Contribution of CES2 to vicagrel hydrolase activity in HIM (RAF method); assay type: in vitro ADME, human
Text: (§2) The RAF method was applied as the ratio of activity values to evaluate the contribution of CES2 and AADAC to vicagrel hydrolysis in HIM. […] The following formulas were used to predict the vicagrel hydrolase activities of CES2 (VCES2, HIM), and AADAC (VAADAC, HIM) in HIM:
(2) VCES2, HIM = Vrec−CES2 × RAFCES2, HIM
(§3) V rec-CES2 and V rec-AADAC are the vicagrel hydrolase activities of recombinant CES2 and AADAC, respectively. The following equations were used to calculate the contributions of CES2 and AADAC to vicagrel hydrolase activities in HIM:
(4) CES2 in HIM(%) = (VCES2, HIM/VHIM) × 100
(§4) where the V HIM value is the observed vicagrel hydrolase activities in HIM.

AADAC [9] = assay: Contribution of AADAC to vicagrel hydrolase activity in HIM (RAF method); assay type: in vitro ADME, human; details: phenacetin as probe
Text: as §2
(3) VAADAC, HIM = Vrec−AADAC × […], HIM
as §3
(5) AADAC in HIM(%) = (VAADAC, HIM/VHIM) × 100
as §4

[10] = parameters: method as in Liu et al., 2017; details: healthy subjects; oral 5 mg vicagrel and 75 mg clopidogrel; ref Liu et al., 2017; cited from earlier work

SMILES: COC(=O)[C@H](c1ccccc1Cl)N1CCc2sc(OC(C)=O)cc2C1 [vicagrel, Vicagrel]
- microsomal CLint (AADAC [1]; human, recombinant human AADAC, pH 7.4): 39000 ± 3100 µL/min/mg
- Hydrolase activity (vicagrel), Vrec-AADAC (AADAC [1]; recombinant AADAC): 21.8 nmol/min/mg
- Vmax of vicagrel hydrolysis (AADAC [1]; recombinant AADAC 0.015 mg/mL, 2 min): 381.7 ± 24.7 nmol/min/mg protein
- Production of H4 from vicagrel relative to clopidogrel ([2]; oral, same dose): four to six times higher
- Production of 2-oxo-clopidogrel from vicagrel relative to clopidogrel [2]: about six times
- microsomal CLint (CES2 [3]; human, recombinant human CES2, pH 7.4, recombinant CES2, calculated as Vmax/Km, read-out: CLint of vicagrel hydrolysis): 46100 ± 3100 µL/min/mg
- Hydrolase activity (vicagrel), Vrec-CES2 (CES2 [3]; recombinant CES2): 26.1 nmol/min/mg
- Vmax of vicagrel hydrolysis (CES2 [3]; recombinant CES2 0.01 mg/mL, 1 min): 331.2 ± 14.9 nmol/min/mg protein
- Vmax of vicagrel hydrolysis ([4]; HIM 0.01 mg/mL, 1 min): 347.2 ± 6.4 nmol/min/mg protein
- Hydrolase activity (vicagrel), VHIM ([4]; human, 1 min, pH 7.4): 48.0 nmol/min/mg
- microsomal CLint ([4]; human, microsomes, pH 7.4): 53100 ± 1040 µL/min/mg
- Km at 1 min ([4]; human, pH 7.4): 6.54 ± 0.45 µM
- Parent drug in human plasma [5]: undetectable
- Vmax of vicagrel hydrolysis ([6]; DIM 0.01 mg/mL, 1 min): 171.4 ± 3.9 nmol/min/mg protein
- Km at 1 min ([6]; dog, dog intestine microsomes, pH 7.4, DIM 0.01 mg/mL, 1 min, read-out: Km of vicagrel hydrolysis): 8.37 ± 0.69 µM
- microsomal CLint ([6]; dog, dog intestine microsomes, pH 7.4, DIM, calculated as Vmax/Km, read-out: CLint of vicagrel hydrolysis): 20500 ± 1300 µL/min/mg
- Hydrolase activity (vicagrel) ([7]; HLM): 96.5 nmol/min/mg
- Vmax of vicagrel hydrolysis ([7]; HLM 0.01 mg/mL, 1 min): 917.6 ± 23.5 nmol/min/mg protein
- Km at 1 min ([7]; human, human liver microsomes, pH 7.4, HLM 0.01 mg/mL, 1 min, formation of 2-oxo-clopidogrel, read-out: Km of vicagrel hydrolysis): 7.18 ± 0.66 µM
- microsomal CLint (CES1; human, recombinant human CES1, pH 7.4, recombinant CES1, calculated as Vmax/Km, read-out: CLint of vicagrel hydrolysis): 29000 ± 2300 µL/min/mg
- Hydrolase activity (vicagrel) (CES1; recombinant CES1): 17.3 nmol/min/mg
- Vmax of vicagrel hydrolysis (CES1; recombinant CES1 0.01 mg/mL, 2 min): 264.0 ± 16.6 nmol/min/mg protein
- Contribution of CES2 to vicagrel hydrolysis (CES2 [8]; HIM, RAF method, procaine as probe): 44.2%
- Sum of the contributions of CES2 and AADAC to vicagrel hydrolysis (CES2 [8]; HIM, RAF method, CES2 plus AADAC): 97.3%
- Calculated vicagrel hydrolase activity of CES2 in HIM (VCES2, HIM) (CES2 [8]; Vrec-CES2 × RAFCES2, HIM): 21.2 nmol/min/mg protein
- Contribution of AADAC to vicagrel hydrolysis (AADAC [9]): approximately 53%
- Contribution of AADAC to vicagrel hydrolysis (AADAC [9]; listed as Vicagrel): 53.1%
- Antiplatelet effects versus clopidogrel [10]: Comparable antiplatelet effects
